Results published in patent US20040248769A1, “Enzyme inhibitors for inactivating allergens” (priority 2001, published 2004).
Where “and” joins values, the source holds several entries; their conditions need not be identical. Identical values can stand only once. *1 amine or outer side, *2 acyl side, *3 side chain or, on linkers, in order; H or OH if unused. Where a SMILES comes first, the peptide text is derived from it. The star is where a group is joined. AMC = Cc1cc(=O)oc2cc(N*)ccc12; Suc = O=C(CCC(=O)[*:2])[*:1]; Cbz = O=C(OCc1ccccc1)*

Columns and labels:
[1] = tested on: Cat1 S1 fur extract proteolytic activity; experiment: Proteolytic activity of fur extract against NHMec substrates; format: biochemical, cat; details: sample Cat1 S1, 5 μM substrate, 37° C., pH 7.5
Method: (§1) A clean pet brush was used to brush three common English domestic cats. Fur from guinea pigs, rabbit, dogs and horse was collected in the same way. A different brush was used for each species and between brushings these were cleaned thoroughly in a denaturing detergent solution (Fairy® detergent) and then ethanol. The brushings were transferred to a sterile universal container and extracted by shaking in an extraction buffer, 50 mM Tris.HCl, 5 mM CaCl2, pH 7.5 (0.1 g/ml). The solution was recovered by centrifugation and stored at −20° C. in aliquots. Saliva was collected from a mastiff-type dog and stored frozen in aliquots until assayed. Sample aliquots were assayed for proteolytic activity using fluorometric blocked peptidylaminomethylcoumarylamide substrates in the cuvette of a Perkin Elmer fluorimeter at 37° C. The fluorimeter was standardised with a known concentration of methylcoumarin, and the assays were designed so that no more than 10% substrate hydrolysis occurred.
(§2) Assays were performed in assay buffer; 50 mM Tris.HCl, 5 mM CaCl2, 0.1% CHAPS, pH 7.5. Data were collected in real-time on a personal computer using the Flusys software package.
(§3) In the first series of experiments the sample (12 μl) was assayed against a range of serine and cysteine proteinase aminomethylcoumarylamide (NHMec) substrates (obtained commercially from Bachem) under standard conditions of 5 μM substrate concentration (from a 100-fold stock solution in dimethyl sulfoxide) to give a final volume of 120 μl. After addition of substrate the rate without sample was determined (which in all cases was zero), after which the sample was applied and the progress of the reaction was followed for a further 15 min. The slope obtained (fluorescence vs time) was analysed by linear regression and converted to rate of product formation (nM/min) see results table 2.

[2] = tested on: Cat2 S1 fur extract proteolytic activity; experiment: as above; format: biochemical, cat; details: sample Cat2 S1, 5 μM substrate, 37° C., pH 7.5
Method: as §1, §2, §3

cat fur enzyme(s) = experiment: Rates of cleavage at varying substrate concentration and Km; format: biochemical; details: for Rate: cat fur sample; for Km: non-linear regression, Enzfitter, rough estimate
Method: as §3
A rough estimate of the Km for the cleavage of Z-Gly-Gly-Arg-NHMec and of Z-Phe-Arg-NHMec by the cat fur enzyme(s) were determined using the same procedure with varying concentrations of these substrates see results table 3.
As the activity follows normal Michaelis-Menten kinetics it is clear that it is due to the activity of one or more biological catalysts or enzymes.

[3] = tested on: Cat1 S3 fur extract proteolytic activity; experiment: Proteolytic activity of fur extract against NHMec substrates; format: biochemical, cat; details: sample Cat1 S3, 5 μM substrate, 37° C., pH 7.5
Method: as §1, §2, §3

[4] = tested on: Cat3 S1 fur extract proteolytic activity; experiment: as above; format: biochemical, cat; details: sample Cat3 S1, 5 μM substrate, 37° C., pH 7.5
Method: as §1, §2, §3

[5] = tested on: Rabbit1 S1 fur extract proteolytic activity; experiment: as above; format: biochemical, rabbit; details: sample Rabbit1 S1, 5 μM substrate, 37° C., pH 7.5
Method: as §1, with “Sample aliquots were assayed for proteolytic activity using fluorometric blocked peptidylaminomethylcoumarylamide substrates in the cuvette of a Perkin Elmer fluorimeter at 37° C. The fluorimeter was standardised with a known concentration of methylcoumarin, and the assays were designed so that no more than 10% substrate hydrolysis occurred.” left out
as §3

[6] = tested on: Dog1 S1 fur extract proteolytic activity; experiment: as above; format: biochemical, dog; details: sample Dog1 S1 (fur), 5 μM substrate, 37° C., pH 7.5
Method: as §1, with “Sample aliquots were assayed for proteolytic activity using fluorometric blocked peptidylaminomethylcoumarylamide substrates in the cuvette of a Perkin Elmer fluorimeter at 37° C. The fluorimeter was standardised with a known concentration of methylcoumarin, and the assays were designed so that no more than 10% substrate hydrolysis occurred.” left out
as §3

[7] = tested on: Dog1 S2 saliva proteolytic activity; experiment: Proteolytic activity of saliva against NHMec substrates; format: biochemical, dog; details: sample Dog1 S2 (saliva), 5 μM substrate, 37° C., pH 7.5
Method: as §1, with “Sample aliquots were assayed for proteolytic activity using fluorometric blocked peptidylaminomethylcoumarylamide substrates in the cuvette of a Perkin Elmer fluorimeter at 37° C. The fluorimeter was standardised with a known concentration of methylcoumarin, and the assays were designed so that no more than 10% substrate hydrolysis occurred.” left out
as §3

[8] = tested on: G. pig1 S1 fur extract proteolytic activity; experiment: Proteolytic activity of fur extract against NHMec substrates; format: biochemical, guinea pig; details: sample G. pig1 S1, 5 μM substrate, 37° C., pH 7.5
Method: as §1, with “Sample aliquots were assayed for proteolytic activity using fluorometric blocked peptidylaminomethylcoumarylamide substrates in the cuvette of a Perkin Elmer fluorimeter at 37° C. The fluorimeter was standardised with a known concentration of methylcoumarin, and the assays were designed so that no more than 10% substrate hydrolysis occurred.” left out
as §3

[9] = tested on: G. pig2 S1 fur extract proteolytic activity; experiment: as above; format: biochemical, guinea pig; details: sample G. pig2 S1, 5 μM substrate, 37° C., pH 7.5
Method: as §1, with “Sample aliquots were assayed for proteolytic activity using fluorometric blocked peptidylaminomethylcoumarylamide substrates in the cuvette of a Perkin Elmer fluorimeter at 37° C. The fluorimeter was standardised with a known concentration of methylcoumarin, and the assays were designed so that no more than 10% substrate hydrolysis occurred.” left out
as §3

[10] = tested on: Cat1 S3 fur extract proteolytic activity; experiment: Inhibition of the proteolytic activity in animal fur by proteinase inhibitors; format: biochemical, cat; details: Cat1 S3, 10 μM inhibitor, substrate 1 Z-Gly-Gly-Arg-NHMec
Method: […] The assay was begun with substrate and sample and a continuous rate of product formation (nM/min) was measured (v0) for 15 min. The inhibitor was added to a final concentration of 10 μM in negligible volume from stock solution in dimethyl sulfoxide. The assay was continued for a further 15 min.
Under these conditions reversible inhibition can be measured as the new steady state (v1) with percentage inhibition being 1−(v1/v0)×100. Irreversible inhibition is measured as a second order rate constant and is time dependent but as long as the inhibitor is present in molar excess should always lead eventually to total inhibition. No distinction was made and inhibition is presented as a percentage of full activity. See results table 4.

With `Cc1cc(=O)oc2cc(NC(=O)[C@H](C)NC(=O)[C@H](C)NC(=O)[C@H](C)NC(=O)CCC(=O)O)ccc12` [Suc-Ala-Ala-Ala-NHMec] the Rate [1] was “No activity” and the Rate [2] was “No activity”.

In the case of `Cc1cc(=O)oc2cc(NC(=O)[C@H](Cc3ccccc3)NC(=O)[C@H](C)NC(=O)[C@H](C)NC(=O)CCC(=O)O)ccc12` [Suc-Ala-Ala-Phe-NHMec] (Suc-Ala-Ala-Phe-{AMC}), the Rate [1] is reported as “No activity” and the Rate [2] is reported as 0.03 nM/min.

Compound `Cc1cc(=O)oc2cc(NC(=O)[C@H](Cc3ccccc3)NC(=O)[C@@H]3CCCN3C(=O)[C@H](C)NC(=O)[C@H](C)NC(=O)CCC(=O)O)ccc12` [Suc-Ala-Ala-Pro-Phe-NHMec] (Suc-AAPF-{AMC}) has a Rate [1] of 0.04 nM/min and a Rate [2] of 0.05 nM/min.

In the case of `Cc1cc(=O)oc2cc(NC(=O)[C@@H](NC(=O)[C@@H]3CCCN3C(=O)[C@H](C)NC(=O)[C@H](C)NC(=O)CCC(=O)O)C(C)C)ccc12` [Suc-Ala-Ala-Pro-Val-NHMec] (Suc-AAPV-{AMC}), the Rate [1] is reported as “No activity” and the Rate [2] is reported as “No activity”.

`Cc1cc(=O)oc2cc(NC(=O)[C@H](CCCCN)NC(=O)[C@H](Cc3ccccc3)NC(=O)[C@H](C)NC(=O)CCC(=O)O)ccc12` [Suc-Ala-Phe-Lys-NHMec] (Suc-Ala-Phe-Lys-{AMC}) was tested, and the Rate [1] was “No activity” and the Rate [2] was “No activity”.

`Cc1cc(=O)oc2cc(NC(=O)[C@H](CCCN=C(N)N)NC(=O)CNC(=O)CNC(=O)OCc3ccccc3)ccc12` [Z-Gly-Gly-Arg-NHMec] showed a Rate [1] of 0.87 nM/min, a Rate [2] of 1.35 nM/min and a Rate (cat fur enzyme(s); [Substrate] 5 μM) of 1.47 nM/min. For the same compound, the Rate (cat fur enzyme(s); [Substrate] 10 μM) was 2.42 nM/min, the Rate (cat fur enzyme(s); [Substrate] 20 μM) was 3.41 nM/min and the Rate (cat fur enzyme(s); [Substrate] 40 μM) was 4.82 nM/min and 8.84 nM/min. For the same compound, the Rate (cat fur enzyme(s); [Substrate] 60 μM) was 10.01 nM/min, the Rate (cat fur enzyme(s); [Substrate] 80 μM) was 13.27 nM/min and the Rate (cat fur enzyme(s); [Substrate] 100 μM) was 11.40 nM/min. The Rate (cat fur enzyme(s); [Substrate] 125 μM) was 13.49 nM/min and the Km (cat fur enzyme(s)) was 95 ± 47 µM.

In the case of `Cc1cc(=O)oc2cc(NC(=O)C(CCCN=C(N)N)NC(=O)C(Cc3ccccc3)NC(=O)OCc3ccccc3)ccc12` (stereo not drawn) [Z-Phe-Arg-NHMec] (Cbz-Phe-Arg-{AMC}; configuration not given here), the Rate [3] is reported as 43.5 nM/min, the Rate [4] is reported as 24.5 nM/min and the Rate [5] is reported as 3.93 nM/min. The Rate [6] was 40.6 nM/min, the Rate [7] was 1786.9 nM/min and the Rate [8] was 9.11 nM/min. The Rate [9] was 18.66 nM/min, the Rate (cat fur enzyme(s); [Substrate] 0.5 μM) was 3.74 nM/min and the Rate (cat fur enzyme(s); [Substrate] 1.0 μM) was 6.99 nM/min. The Rate (cat fur enzyme(s); [Substrate] 2.0 μM) was 10.2 nM/min, the Rate (cat fur enzyme(s); [Substrate] 5 μM) was 27.3 nM/min and the Rate (cat fur enzyme(s); [Substrate] 60 μM) was 35.4 nM/min. It also gave a Rate (cat fur enzyme(s); [Substrate] 80 μM) of 32.3 nM/min, a Rate (cat fur enzyme(s); [Substrate] 100 μM) of 33.7 nM/min and a Km (cat fur enzyme(s)) of 3.2 ± 0.9 µM.

Aprotinin was tested, and the “% Inhibition” value [10] was 89.6% and the “v1 (rate after inhibitor)” value [10] was 0.292 nM/min.
